Values joined by “and” are separate entries in the source; they are usually repeats but may differ in a detail not shown here. Identical values can stand only once. Like-named read-outs stand apart in the source and are kept apart here.
Experiments:
[1] = Metabolic stability in rat liver S9; assay type: in vitro ADME, Sprague Dawley rat; set-up: half-life: dose or concentration left out as unconfirmed; settings: for half-life: Sprague Dawley (rat), rat, dog and human liver S9 incubations (summary over species), read-out: half-lives; for half-life / half-life at 1 μM / microsomal CLint at 1 μM: pH 7.2; for half-life at 1 μM / microsomal CLint at 1 μM: Sprague Dawley; for half-life at 1 μM / microsomal CLint at 1 μM / % Remaining / Analyte Peak area/IS Peak area Mean × 100 (n = 2): rat liver S9, 1 μM; for microsomal CLint at 1 μM: read-out: CLint(LS9)
Method: Incubation Buffer (PBK): 50 mM potassium phosphate buffer was prepared from 1 M potassium phosphate buffer, pH 7.2. […] The dilution of […] was prepared by 90% methanol/10% DMSO, then 10 μM working solutions were prepared by diluting the 0.1 mM intermediates with 50 mM PBK. […] Prior to use, the stock solutions were brought to room temperature and thoroughly mixed. […] Cofactors Solutions: the mixture of cofactors solution was made at 10 mM of NADPH and 10 mM of UDPGA in PBK buffer.
The incubation was carried out in 96-well plates. The liver S9 working solutions were added to 96-well plates (80 μL/well) in duplicate. […] Reaction was initiated by adding cofactor mixture 10 μL/well. The plates were incubated at 37° C. in a water bath with shaking. […] The final organic solvent content in the incubation was ≤1%.
At specified time points, i.e., 5, 10, 20, 30 and 60 minutes, NCF60 (without adding NADPH (Nicotinamide-adenine dinucleotide phosphate, reduced form) and UDPGA (Uridine 5′-diphosphoglucuronic acid trisodium salt) replaced with PBK buffer reaction was stopped by adding three volumes of stop solution. The time zero (To) samples were prepared by adding three volumes of stop solution to liver S9 samples, followed by addition of test article or control, and cofactor mixture solution 10 μL/well.
Subsequently, 100 μL of supernatant.
Positive controls: 7-ethoxycoumarin and 7-hydroxycoumarin.

Enzyme and uptake assays = assay type: biochemical; settings: human recombinant; [3H]NE incorporation into cells; read-out: IC50, Norepinephrine transporter uptake (h)
Method: A study was conducted to test 5 compounds in cellular and nuclear receptor functional and enzyme and uptake assays.
The results are expressed as a percent of control specific activity
and as a percent inhibition of control specific activity
The IC50 values (concentration causing a half-maximal inhibition of control specific activity), EC50 values (concentration producing a half-maximal increase in control basal activity), and Hill coefficients (nH) were determined by non-linear regression analysis of the inhibition/concentration-response curves generated with mean replicate values using Hill equation curve fitting
where Y=specific activity, A=left asymptote of the curve, D=right asymptote of the curve, C=compound concentration, C50=IC50 or EC50, and nH=slope factor. This analysis was performed using software developed at Cerep (Hill software) and validated by comparison with data generated by the commercial software SigmaPlot® 4.0 for Windows® (© 1997 by SPSS Inc.).
In Vitro Pharmacology. Results showing an inhibition (or stimulation for assays run in basal conditions) higher than 50% were considered to represent significant effects of the test compounds. Results showing an inhibition (or stimulation) between 25% and 50% are indicative of weak to moderate effects. Results showing an inhibition (or stimulation) lower than 25% were not considered significant and mostly attributable to variability of the signal around the control level. […]

[2] = Preclinical PK after intraperitoneal dosing of COMPOUND D, COMPOUND B and viloxazine; assay type: in vivo, mouse; settings: COMPOUND B IP 10.948 mg/kg; for concentration at 0.25 h / concentration at 0.5 h: read-out: Plasma concentration of COMPOUND B; for MRT last: read-out: MRT0-last, plasma COMPOUND B; for Tmax: read-out: Tmax, plasma COMPOUND B
immobility = assay: Tail suspension test (TST)
Method: The tail suspension test is an experimental method used in scientific research to measure a state of being helpless in rodents, especially in mice. It is based on the observation that if a mouse is subjected to short term inescapable stress then the mouse will stop struggling. Immobility is quantified by measuring the amount of time lacking whole body activity.
The immobilized time in the last 4 min of the TST, which indicated depression-like behavior, was quantified using offline video manual scoring in a blinded manner.
Animals. Adult (7 to 8 weeks) male mice (C57Bl/6, Charles River Laboratories) were used in the study. Upon arrival, animals were group-housed (5/cage) with access to food and water ad libitum. Animals were maintained on a 12/12-hour light/dark cycle in a temperature—(22±2° C.) and humidity—(approx. 50%) controlled room. Animals were numbered consecutively by tail marks. Each cage was identified by a card indicating the study number, sex, animal numbers and date of birth.
Test article formulations were prepared fresh based on weight-to-volume in the vehicle on each dosing day. […] The appearance of the formulations was clear, with no precipitations. […] A vehicle group was included for comparison.
Monitoring. A piezoelectric sensor operated by the SmartCage system was utilized and video recording was conducted for scoring. After animals acclimated to the testing room, an individual mouse's tail was placed onto the piezoelectric sensor-board and the mouse was hung upside down, which signaled the immediate start of the recording of struggle activity, and it lasted for 6 min. The mouse was then taken off and returned to the home cage. The immobilized time, indicating depression-like behavior, was quantified using manual scoring of the video recordings for the period from 120 seconds to 360 seconds during TST. The percent immobility time was calculated: (immobility time/240 seconds)*100.
The immobilized time in the last 4 min of the TST, which indicates depression-like behavior, was quantified using offline video manual scoring in a blinded manner.
Animals. Adult (8 weeks, approximately 20-25 g) male mice (C57Bl/6, Vendor: Charles River Laboratories) were used in the study. Upon arrival, animals were group-housed (5/cage) with access to food and water ad libitum. Animals were maintained on a 12/12-hour light/dark cycle in a temperature—(22±2° C.) and humidity—(35-50%) controlled room. Animals were numbered consecutively by tail ID. Each cage was identified by a colored card indicating the study number, sex, animal numbers and date of birth.
Test article formulations were prepared fresh based on weight-to-volume in the vehicle on dosing day. […] The appearance of the formulations was clear, with no precipitations.
The tail suspension test is an experimental method used in scientific research to measure a state of being helpless in rodents, especially in mice. It is based on the observation that if a mouse is subjected to short term inescapable stress then the mice will give up struggling. “Immobility” is quantified by measuring the amount of time during which the animal has no whole-body activity.
Tail Suspension Test (TST). A piezoelectric sensor operated by the SmartCage system was utilized and video recording was conducted for scoring. Once animals were acclimated to the testing room, the TST was initiated by placing the tail of the test mouse onto the piezoelectric sensor-board and hanging the mouse upside down. The recording period was initiated once the mouse was upside down and lasted for 6 min. After the recording period, the mouse was removed from the recording device and returned to its home cage.

[3] = mouse, plasma, ip, 10.948 mg/kg, individual mice
[4] = mouse, plasma, ip, 10.948 mg/kg, mean

Question: For `CCOc1ccccc1OC[C@@H]1CN(C(=O)OC(OC(=O)[C@@H](N)C(C)C)C(C)C)CCO1` (stereo partly shown) [COMPOUND B], which half-life [1] is on record?
Answer: 4 to 12 min

Question: And the half-life at 1 μM [1]?
Answer: 4.09 min

Question: And the microsomal CLint at 1 μM [1]?
Answer: 339 µL/min/mg

Question: And the “% Remaining” value ([1]; 0 min)?
Answer: 100%

Question: What about the “Analyte Peak area/IS Peak area Mean × 100 (n = 2)” value ([1]; 0 min) of the same molecule?
Answer: 7.71

Question: What about the “% Remaining” value ([1]; 5 min) of the same molecule?
Answer: 6.8%

Question: What about the “Analyte Peak area/IS Peak area Mean × 100 (n = 2)” value ([1]; 5 min) of the same molecule?
Answer: 0.524

Question: What about the “% Remaining” value ([1]; 10 min) of the same molecule?
Answer: 4.6%

Question: What about the “Analyte Peak area/IS Peak area Mean × 100 (n = 2)” value ([1]; 10 min) of the same molecule?
Answer: 0.351

Question: And the “% Remaining” value ([1]; 20 min)?
Answer: 2.3%

Question: What about the “Analyte Peak area/IS Peak area Mean × 100 (n = 2)” value ([1]; 20 min) of the same molecule?
Answer: 0.174

Question: And the “% Remaining” value ([1]; 30 min)?
Answer: 0.2%

Question: What about the “Analyte Peak area/IS Peak area Mean × 100 (n = 2)” value ([1]; 30 min) of the same molecule?
Answer: 0.019

Question: What about the “% Remaining” value ([1]; 60 min) of the same molecule?
Answer: 0.08% and 0.1%

Question: What about the “Analyte Peak area/IS Peak area Mean × 100 (n = 2)” value ([1]; 60 min) of the same molecule?
Answer: 0.006

Question: What about the “% Remaining” value ([1]; NCF60 (no cofactors, 60 min)) of the same molecule?
Answer: 0.4%

Question: And the “Analyte Peak area/IS Peak area Mean × 100 (n = 2)” value ([1]; NCF60 (no cofactors, 60 min))?
Answer: 0.029

Question: And the IC50 (Enzyme and uptake assays)?
Answer: 1.9 µM

Question: What about the “Plasma concentration of COMPOUND B” value ([2]; 0.250 h, individual mice, 10.948 mg/kg) of the same molecule?
Answer: BQL and 17.7 ng/mL

Question: And the “Plasma concentration of COMPOUND B” value ([2]; 0.500 h, individual mice, 10.948 mg/kg)?
Answer: 4.88 ng/mL and 8.44 ng/mL

Question: What about the “Plasma concentration of COMPOUND B” value ([2]; 1.00 h, individual mice) of the same molecule?
Answer: BQL

Question: And the “Plasma concentration of COMPOUND B” value ([2]; 2.00 h, individual mice)?
Answer: BQL

Question: What about the “Plasma concentration of COMPOUND B” value ([2]; 4.00 h, individual mice) of the same molecule?
Answer: BQL

Question: What about the “Plasma concentration of Viloxazine” value ([2]; 4.00 h, individual mice, 10.948 mg/kg) of the same molecule?
Answer: BQL

Question: And the “Plasma concentration of COMPOUND B” value ([2]; 8.00 h, individual mice)?
Answer: BQL

Question: What about the “Plasma concentration of Viloxazine” value ([2]; 8.00 h, individual mice, 10.948 mg/kg) of the same molecule?
Answer: BQL

Question: What about the “Plasma concentration of COMPOUND B” value ([2]; 24.0 h, individual mice) of the same molecule?
Answer: BQL

Question: What about the “Plasma concentration of Viloxazine” value ([2]; 24.0 h, individual mice) of the same molecule?
Answer: BQL

Question: And the “Tlast, plasma COMPOUND B” value ([2]; individual mice)?
Answer: 0.500 h

Question: What about the “AUC0-last, plasma COMPOUND B” value ([2]; individual mice, 10.948 mg/kg) of the same molecule?
Answer: 6.48 ng·h/mL and 1.22 ng·h/mL and 5.34 ng·h/mL

Question: What about the “Cmax, plasma COMPOUND B” value ([2]; individual mice, 10.948 mg/kg) of the same molecule?
Answer: 25.4 ng/mL and 4.88 ng/mL and 17.7 ng/mL

Question: What about the “MRT0-last, plasma COMPOUND B” value ([2]; individual mice, 10.948 mg/kg) of the same molecule?
Answer: 30 min and 18.8 min

Question: And the “Tmax, plasma COMPOUND B” value ([2]; individual mice, 10.948 mg/kg)?
Answer: 30 min and 15 min

Question: What about the “Tlast, plasma COMPOUND B” value ([2]; mean) of the same molecule?
Answer: 0.500 h

Question: What about the concentration at 0.25 h ([2]; mouse, plasma, ip, 10.948 mg/kg, 0.250 h, individual mice) of the same molecule?
Answer: 25.4 ng/mL

Question: What about the concentration at 0.25 h ([2]; mouse, plasma, ip, 10.948 mg/kg, 0.250 h, mean) of the same molecule?
Answer: 21.6 ng/mL

Question: And the concentration at 0.5 h ([2]; mouse, plasma, ip, 10.948 mg/kg, 0.500 h, individual mice)?
Answer: 5.75 ng/mL

Question: And the concentration at 0.5 h ([2]; mouse, plasma, ip, 10.948 mg/kg, 0.500 h, mean)?
Answer: 6.36 ng/mL

Question: What about the MRT last [2, 3] of the same molecule?
Answer: 17.9 min

Question: What about the Tmax [2, 3] of the same molecule?
Answer: 15 min

Question: What about the AUC(0-t) ([2]; mouse, plasma, ip, 10.948 mg/kg, mean, read-out: AUC0-last, plasma COMPOUND B) of the same molecule?
Answer: 4.35 ng·h/mL

Question: And the Cmax ([2]; mouse, plasma, ip, 10.948 mg/kg, mean, read-out: Cmax, plasma COMPOUND B)?
Answer: 16 ng/mL

Question: What about the MRT last [2, 4] of the same molecule?
Answer: 22.3 min

Question: What about the Tmax [2, 4] of the same molecule?
Answer: 20 min

Question: What does the source list for `CCOc1ccccc1OC[C@@H]1CN(C(=O)OC(C)OC(=O)[C@@H](N)C(C)C)CCO1` (stereo partly shown) [COMPOUND A]?
Answer: half-life [1]: 4 to 12 min; half-life at 1 μM [1]: 8.61 min; microsomal CLint at 1 μM [1]: 161 µL/min/mg; % Remaining ([1]; 0 min): 100%; Analyte Peak area/IS Peak area Mean × 100 (n = 2) ([1]; 0 min): 10.7; % Remaining ([1]; 5 min): 6.3%; Analyte Peak area/IS Peak area Mean × 100 (n = 2) ([1]; 5 min): 0.669; % Remaining ([1]; 10 min): 5.4%; Analyte Peak area/IS Peak area Mean × 100 (n = 2) ([1]; 10 min): 0.574; % Remaining ([1]; 20 min): 3.4%; Analyte Peak area/IS Peak area Mean × 100 (n = 2) ([1]; 20 min): 0.362; % Remaining ([1]; 30 min): 1.6%; Analyte Peak area/IS Peak area Mean × 100 (n = 2) ([1]; 30 min): 0.171; % Remaining ([1]; 60 min): 0.25%; Analyte Peak area/IS Peak area Mean × 100 (n = 2) ([1]; 60 min): 0.026; % Remaining ([1]; NCF60 (no cofactors, 60 min)): 2.2%; Analyte Peak area/IS Peak area Mean × 100 (n = 2) ([1]; NCF60 (no cofactors, 60 min)): 0.237; IC50 (Enzyme and uptake assays): 0.39 µM; decrease of immobility compared to vehicle (immobility; COMPOUND A 32 mg/kg PO): 30%; percent immobility time (immobility; COMPOUND A 4, 8, 16, 32 mg/kg PO, ANOVA p=0.006): significant reduction in immobility

— US20240343699A1, “DERIVATIVES OF SUBSTITUTED MORPHOLINES AND USES THEREOF” (Supernus Pharmaceuticals, Inc., priority 2023, published 2024)
